The record followed here is ChEMBL document CHEMBL3886179, “Substituted 6, 7-dialkoxy-3-isoquinoline derivatives as inhibitors of phosphodiesterase 10 (PDE 10A)” (2015).

Molecules are shown by their SMILES. “And” between values parts separate entries of the source, which are not always exact repeats. Identical values can stand only once.

Chain of cAMP and cAMP-inhibited cGMP 3',5'-cyclic phosphodiesterase 10A (Q9Y233 whole entry): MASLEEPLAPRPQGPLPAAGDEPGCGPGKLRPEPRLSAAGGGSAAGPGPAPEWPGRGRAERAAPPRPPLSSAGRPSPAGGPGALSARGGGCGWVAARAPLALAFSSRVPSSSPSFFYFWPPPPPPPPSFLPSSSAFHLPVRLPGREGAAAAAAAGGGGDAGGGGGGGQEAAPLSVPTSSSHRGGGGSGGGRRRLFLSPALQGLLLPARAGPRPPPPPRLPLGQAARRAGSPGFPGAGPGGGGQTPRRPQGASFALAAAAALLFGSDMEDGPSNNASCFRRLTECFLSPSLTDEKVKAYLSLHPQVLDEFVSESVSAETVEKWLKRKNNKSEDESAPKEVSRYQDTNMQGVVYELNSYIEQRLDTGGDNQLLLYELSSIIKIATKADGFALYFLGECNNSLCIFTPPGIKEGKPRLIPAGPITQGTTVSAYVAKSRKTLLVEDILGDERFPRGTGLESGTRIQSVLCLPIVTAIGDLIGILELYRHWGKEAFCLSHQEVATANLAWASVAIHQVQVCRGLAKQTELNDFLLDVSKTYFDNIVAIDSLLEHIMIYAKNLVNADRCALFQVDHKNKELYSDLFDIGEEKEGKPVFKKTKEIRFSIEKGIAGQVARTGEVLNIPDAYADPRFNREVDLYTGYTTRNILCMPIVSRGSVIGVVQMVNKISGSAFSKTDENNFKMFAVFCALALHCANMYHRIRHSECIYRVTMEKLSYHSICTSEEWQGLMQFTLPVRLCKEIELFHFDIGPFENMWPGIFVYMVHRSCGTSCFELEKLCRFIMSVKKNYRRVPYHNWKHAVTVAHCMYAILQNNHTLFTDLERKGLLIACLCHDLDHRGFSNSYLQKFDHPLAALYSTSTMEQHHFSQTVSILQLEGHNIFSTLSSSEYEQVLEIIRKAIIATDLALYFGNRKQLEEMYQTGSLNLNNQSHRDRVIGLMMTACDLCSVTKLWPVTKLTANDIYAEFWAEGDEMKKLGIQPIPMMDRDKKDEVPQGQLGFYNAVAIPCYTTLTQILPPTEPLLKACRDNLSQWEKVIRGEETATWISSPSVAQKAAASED

This experiment concerns the target cAMP and cAMP-inhibited cGMP 3',5'-cyclic phosphodiesterase 10A (Homo sapiens, UniProt Q9Y233). The experiment is described as follows: Diaxonhit Phosphodiesterase Assay: The phosphodiesterase assay was developed using the LANCE cAMP kit (PerkinElmer). The assay buffer contained HBSS with 5 mM HEPES, 0.1% BSA, and 1.5 mM MgCl2, pH 7.4. PDE10A (BPS Bioscience) was used at 200 pg/well (with a specific activity of 3200 pmole/min/ug with assay conditions: 10 mM Tris-HCl, pH 7.4, 10 mM MgCl2, 1 mM MnCl2, 200 uM cAMP, 2.5 kU 5' nucleotidase, 37° C., 20 min) and PDE4D3 (BPS Bioscience) was used at 100 pg/well (with a specific activity of 32713 pmole/min/ug with assay conditions: 10 mM Tris-HCl, pH 7.4, 10 mM MgCl2, 1 mM MnCl2, 200 uM cAMP, 2.5 kU 5' nucleotidase, 37° C., 20 min). The Biotin-cAMP tracer, supplied in 10 mmol/L Tris-HCl buffered (pH 8.0) salt solution with 1 mmol/L ethylenediaminetetraacetic acid (EDTA), 0.1% bovine serum albumin (BSA), and 0.05% sodium azide, is used at a dilution of 1/375. The assay detection mixture contained the LANCE Eu-W8044 labeled streptavidin 1/2250 (supplied in 50 mmol/L Tris-HCl buffer).
As a reminder, the IC50 is the concentration that gives 50% inhibition. Turning to `COc1cc2c(Cc3cnc4ccccc4c3)cnc(C3CC3)c2cc1OC`, the 50% inhibitory concentration (IC50) was 42 nM.

For the compound `CCOc1cccc2ccc(Cc3cncc4cc(OC)c(OC)cc34)nc12`, the IC50 was determined as 49 nM. Turning to `COCc1ncc(Cc2ccc3cccc(NS(N)(=O)=O)c3n2)c2cc(OC)c(OC)cc12`, the IC50 was determined as 0.18 nM. With `CCCc1ncc(Cc2ccc3cccc(OCC(N)=O)c3n2)c2cc(OC)c(OC)cc12`, the IC50 was 1.4 nM and 5.3 nM.

Take `COc1cc2c[n+]([O-])cc(Cc3ccc4oc5ccccc5c4c3)c2cc1OC`: the IC50 came out at 31 nM. For the compound `CCOc1cc2c(Cc3ccc4oc5ccccc5c4c3)cncc2cc1OC`, the IC50 is 287 nM. On to `COc1cc2c(Cc3ccc4ccccc4c3)cnc(C)c2cc1OC`, for which the half-inhibitory concentration (IC50) is 194 nM. On to `CCCc1ncc(Cc2ccc3cccc(OCCO)c3n2)c2cc(OC)c(OC)cc12`, for which the IC50 was determined as 6.6 nM. For `CCc1ncc(Cc2ccc3cccc(C#N)c3n2)c2cc(OC)c(OC)cc12`, the IC50 amounted to 46 nM. As for `COc1cc2cncc(Cc3ccc4cccc(O)c4n3)c2cc1OC`, the concentration for half-maximal inhibition (IC50) came to 23 nM.

As for `CCc1ncc(Cc2ccc3oc4ccccc4c3c2)c2cc(OC)c(OC)cc12`, the IC50 stood at 339 nM.

For the compound `COc1cc2cncc(Cc3ccc4[nH]c(=O)oc4c3)c2cc1OC`, the half-maximal inhibitory concentration (IC50) turned out to be 34 nM.

For the compound `CCc1ncc(Cc2cnc3ccccc3c2)c2cc(OC)c(OC)cc12`, the half-maximal inhibitory concentration (IC50) came out at 19 nM.

`CCCc1ncc(Cc2cc3cc(OC)ccc3nc2NCC)c2cc(OC)c(OC)cc12`: the IC50 came to 9.7 nM. The value for `CCc1ncc(Cc2cnc3ccc(NS(N)(=O)=O)cc3c2)c2cc(OC)c(OC)cc12` was 4.6 nM; that for `COc1cc2c(Cc3ccc4oc5ccccc5c4c3)cnc(C)c2cc1OC` was 184 nM; that for `CCCc1ncc(Cc2cc3ccccc3cn2)c2cc(OC)c(OC)cc12` was 159 nM. The result for `CCOc1cc2c(Cc3cnc4ccccc4c3)cncc2cc1OC` reads 92 nM; that for `COc1cc2cncc(Cc3cnc4ccccc4c3)c2cc1OC`, 13 nM; that for `CCOC(=O)COc1cccc2ccc(Cc3cncc4cc(OC)c(OC)cc34)nc12`, 51 nM. The result for `CCCc1ncc(Cc2cnc3ccccc3c2)c2cc(OC)c(OC)cc12` reads 11 nM; that for `COc1cc2cncc(Cc3ccc4c(c3)CCC(C)(C)O4)c2cc1OC`, 81 nM. Consider `CCc1ncc(Cc2cc3ccccc3cn2)c2cc(OC)c(OC)cc12`, for which the half-maximal inhibitory concentration (IC50) was found to be 32 nM. The result for `COc1cc2c(Cc3ccc4nc(C)ccc4c3)cnc(-c3ccccc3)c2cc1OC` reads 148 nM; that for `CCc1ncc(Cc2ccc3cccc(NC(N)=O)c3n2)c2cc(OC)c(OC)cc12`, 58 nM; that for `COc1cc2cncc(Cc3ccc4ccccc4c3)c2cc1OC`, 105 nM. The value for `c1ccc2c(c1)oc1ccc(Cc3cncc4cc5c(cc34)OCCO5)cc12` was 7560 nM. As for `COc1cc2cncc(Cc3ccc4c(c3)Cc3ccccc3-4)c2cc1OC`, the IC50 was determined as 110 nM. The value for `COc1cc2cncc(Cc3coc4c(Cl)cc(Cl)cc4c3=O)c2cc1OC` was 27 nM; that for `CCCc1ncc(Cc2cnc3cc(C)ccc3c2)c2cc(OC)c(OC)cc12` was 5.2 nM. The value for `CCn1c(=O)oc2ccc(Cc3cncc4cc(OC)c(OC)cc34)cc21` was 7.8 nM; that for `COc1cc2cncc(Cc3cnc4cc(C)ccc4c3)c2cc1OC` was 1.2 nM. The value for `CCc1ncc(Cc2cnc3ccc(N)cc3c2)c2cc(OC)c(OC)cc12` was 13 nM. Regarding `COc1cc2cncc(Cc3coc4ccc(Cl)cc4c3=O)c2cc1OC`, the IC50 was determined as 20 nM.

On to `c1ccc2c(c1)oc1ccc(Cc3cncc4cc5c(cc34)OCO5)cc12`, for which the IC50 is 3170 nM. The result for `COc1cc2cncc(Cc3ccc4cccc(OCC(N)=O)c4n3)c2cc1OC` reads 21 nM; that for `CCc1ncc(Cc2cc3cc(OC)ccc3nc2O)c2cc(OC)c(OC)cc12`, 44 nM; that for `CCCc1ncc(Cc2coc3ccc(C)cc3c2=O)c2cc(OC)c(OC)cc12`, 31 nM. With `COc1cc2cncc(Cc3coc4ccc(F)cc4c3=O)c2cc1OC`, the IC50 worked out at 38 nM. The value for `COc1ccc2cc(Cc3cncc4cc(OC)c(OC)cc34)ccc2c1` was 54 nM; that for `CCc1ncc(Cc2ccc3cccc(C(N)=O)c3n2)c2cc(OC)c(OC)cc12` was 77 nM.

On to `COc1cc2c(Cc3ccc4nc(C)ccc4c3)cnc(C3CCCCC3)c2cc1OC`, for which the IC50 amounted to 368 nM. The value for `CCCc1ncc(Cc2coc3ccc(F)cc3c2=O)c2cc(OC)c(OC)cc12` was 54 nM. As for `CCCOc1cccc2ccc(Cc3cncc4cc(OC)c(OC)cc34)nc12`, the half-inhibitory concentration (IC50) turned out to be 315 nM. The result for `COc1cc2cncc(Cc3cc4ccccc4cn3)c2cc1OC` reads 30 nM; that for `COc1cc2cncc(Cc3ccc4nc(C)ccc4c3)c2cc1OC`, 6.5 nM; that for `CCCc1ncc(Cc2ccc3cccc(OCC(=O)O)c3n2)c2cc(OC)c(OC)cc12`, 4.9 nM. The result for `CCOc1c(Cc2cncc3cc(OC)c(OC)cc23)cnc2c1cnn2CC` reads 3560 nM. As for `COc1cc2cncc(Cc3ccc4[nH]cnc4c3)c2cc1OC`, the IC50 came to 74 nM. The result for `COc1cc2c(Cc3cnc4cc(C)ccc4c3)cnc(C)c2cc1OC` reads 7.1 nM; that for `CCCc1ncc(Cc2ccc3oc4ccccc4c3c2)c2cc(OC)c(OC)cc12`, 278 nM. For the compound `COc1cc2cncc(Cc3coc4ccc(C)cc4c3=O)c2cc1OC`, the IC50 turned out to be 5.1 nM.

In the case of `COc1cc2cncc(Cc3ccc4oc5ccccc5c4c3)c2cc1OC`, the half-maximal inhibitory concentration (IC50) amounted to 7.6 nM.

Take `COc1cc2cncc(Cc3cc4ccccc4nc3N(C)C)c2cc1OC`: the 50% inhibitory concentration (IC50) worked out at 142 nM.

Take `COc1ccc2nc(O)c(Cc3cncc4cc(OC)c(OC)cc34)cc2c1`: the concentration for half-maximal inhibition (IC50) worked out at 25 nM. Take `CCc1ncc(Cc2ccc3nc(C)ccc3c2)c2cc(OC)c(OC)cc12`: the IC50 was 28 nM. Regarding `CCCc1ncc(Cc2ccc3cccc(NS(N)(=O)=O)c3n2)c2cc(OC)c(OC)cc12`, the IC50 worked out at 0.82 nM. The result for `CCc1ncc(Cc2cnc3ccc(NS(C)(=O)=O)cc3c2)c2cc(OC)c(OC)cc12` reads 16 nM; that for `COc1cc2cncc(Cc3ccc4ccccc4n3)c2cc1OC`, 208 nM; that for `COc1cc2cnc(C)c(Cc3ccc4ccccc4c3)c2cc1OC`, 1070 nM. In the case of `CCc1ncc(Cc2ccc3cccc(NS(C)(=O)=O)c3n2)c2cc(OC)c(OC)cc12`, the IC50 was found to be 8.3 nM. The value for `CCCc1ncc(Cc2ccc3cccc(O)c3n2)c2cc(OC)c(OC)cc12` was 20 nM; that for `CCOc1cc2cncc(Cc3cnc4ccccc4c3)c2cc1OCC` was 168 nM. The value for `CCCCc1ncc(Cc2cnc3cc(C)ccc3c2)c2cc(OC)c(OC)cc12` was 946 nM; that for `COc1cc2c(Cc3ccc4nc(C)ccc4c3)cnc(CC(C)C)c2cc1OC` was 31 nM; that for `COc1cc2cncc(Cc3ccc4c(c3)oc(=O)n4C)c2cc1OC` was 3.6 nM. The result for `CCCc1ncc(Cc2cc3ccccc3nc2O)c2cc(OC)c(OC)cc12` reads 36 nM. As to `COc1cc2cncc(Cc3cc4ccccc4nc3Cl)c2cc1OC`, the half-inhibitory concentration (IC50) stood at 95 nM. Turning to `CCCc1ncc(Cc2ccc3cccc(OCCC(=O)O)c3n2)c2cc(OC)c(OC)cc12`, the 50% inhibitory concentration (IC50) was found to be 2.3 nM.

Regarding `CCCc1ncc(Cc2cc3cc(OC)ccc3nc2OCCNC(C)=O)c2cc(OC)c(OC)cc12`, the IC50 stood at 65 nM. Consider `CCc1ncc(Cc2cnc3ccc(N4CCCC4=O)cc3c2)c2cc(OC)c(OC)cc12`, for which the IC50 was found to be 15 nM.

As to `CCc1ncc(Cc2ccc3cccc(NC(C)=O)c3n2)c2cc(OC)c(OC)cc12`, the IC50 was 17 nM. For `CCc1ncc(Cc2ccc3cccc(OCC(N)=O)c3n2)c2cc(OC)c(OC)cc12`, the IC50 turned out to be 20 nM. `CCCCc1ncc(Cc2ccc3nc(C)ccc3c2)c2cc(OC)c(OC)cc12`: the concentration for half-maximal inhibition (IC50) came out at 154 nM. The value for `CCc1ncc(Cc2cnc3ccc(O)cc3c2)c2cc(OC)c(OC)cc12` was 28 nM; that for `CCCc1ncc(Cc2ccc3c(c2)oc(=O)n3C)c2cc(OC)c(OC)cc12` was 4.4 nM; that for `CCn1ncc2c(Cl)c(Cc3cncc4cc(OC)c(OC)cc34)cnc21` was 330 nM. For `CCn1c(=O)oc2cc(Cc3cncc4cc(OC)c(OC)cc34)ccc21`, the IC50 worked out at 32 nM. The result for `CCCCc1ncc(Cc2cnc3ccccc3c2)c2cc(OC)c(OC)cc12` reads 92 nM. Turning to `COc1cc2cncc(Cc3ccc4cccc(OCc5cccnc5)c4n3)c2cc1OC`, the IC50 turned out to be 90 nM. For `COc1cc2cncc(Cc3ccc4ncccc4c3)c2cc1OC`, the 50% inhibitory concentration (IC50) stood at 54 nM. Consider `COc1cc2c(Cc3ccc4nc(C)ccc4c3)cnc(C3CC3)c2cc1OC`, for which the 50% inhibitory concentration (IC50) is 25 nM. The result for `CCCc1ncc(Cc2cc3cc(OCC)ccc3nc2O)c2cc(OC)c(OC)cc12` reads 99 nM. The value for `CCc1ncc(Cc2ccc3cccc(NC(=O)C(N)=O)c3n2)c2cc(OC)c(OC)cc12` was 17 nM. As to `CCc1ncc(Cc2ccc3cccc(NS(N)(=O)=O)c3n2)c2cc(OC)c(OC)cc12`, the IC50 was 0.53 nM.

In the case of `COc1ccc2cc(Cc3cncc4cc(OC)c(OC)cc34)cnc2c1`, the half-maximal inhibitory concentration (IC50) came to 18 nM. The result for `COc1cc2cncc(Cc3ccc4cccc(OCc5ccncc5)c4n3)c2cc1OC` reads 213 nM; that for `COc1cc2cncc(Cc3ccc4c(c3)CCN4C)c2cc1OC`, 132 nM. For the compound `COc1cc2cncc(Cc3ccc4oc(-c5ccccc5)nc4c3)c2cc1OC`, the 50% inhibitory concentration (IC50) worked out at 189 nM.

Regarding `CCc1ncc(Cc2ccc3cccc(NS(=O)(=O)CC)c3n2)c2cc(OC)c(OC)cc12`, the half-maximal inhibitory concentration (IC50) came to 3.5 nM. Consider `COc1cc2cncc(Cc3ccc4c(c3)OCCN4C)c2cc1OC`, for which the IC50 was determined as 70 nM. In the case of `CCn1ncc2c(O)c(Cc3cncc4cc(OC)c(OC)cc34)cnc21`, the IC50 amounted to 238 nM.

Turning to `COc1cc2cncc(Cc3coc4ccccc4c3=O)c2cc1OC`, the IC50 was 41 nM.
